According to patent publication US12708113B2, “Herbicidal compositions and methods of use thereof” (Valent U.S.A. LLC, priority 2018, dated 2026):

Assay: Metribuzin solubility in salt solutions
Format: physicochemical
Settings: ammonium sulfate, ammonium acetate and potassium citrate tribasic monohydrate solutions; FIG. 1
Description: Metribuzin is partially soluble in water. Because of its partial solubility metribuzin grows crystals in aqueous solutions. It is a discovery of the present invention that, if water solubility of metribuzin is lowered, then crystal growth is inhibited or reduced. To determine if salts could lower the water solubility of metribuzin, metribuzin was added to the saturation point to several concentrations of ammonium sulfate, ammonium acetate and potassium citrate tribasic monohydrate solutions. Results can be seen in FIG. 1.

CSc1nnc(C(C)(C)C)c(=O)n1N [metribuzin, Metribuzin]
water solubility of metribuzin versus salt concentration: negatively correlated
